Measurements as given in US4278596A, “Analgesic pentapeptides” (American Home Products Corporation, priority 1978, dated 1981).

Tests used:
[1] = test system: opiate receptor; settings: brain homogenates; cited from earlier work
[2] = test system: guinea pig ileum; settings: like morphine; cited from earlier work
[3] = test system: mouse vas deferns; settings: mouse vas deferens, like morphine; cited from earlier work
[4] = test system: rats; test: rat-tail flick method of D'Amour and Smith; assay type: in vivo; settings: 5.0 mg/kg. i.v.
Experimental: In this procedure, a representative polypeptide of this invention, N-Me-Tyr-D-Ser-Gly-N-Me-Phe-D-Ser-NH2,acetate, produced significant analgesia in rats upon administration at a dose as low as 0.1 mg/kg. intravenously, and 0.5 mg/kg. subcutaneously.
When N-Me-Tyr-D-Ser-Gly-N-Me-Phe-D-Ser-NH2, acetate was tested in the rat-tail flick procedure of D'Amour and Smith (supra), the following results were obtained: […]

Compound: H-Tyr-Gly-Gly-Phe-Met-OH [methionine-enkephalin]
- effect on stereospecific receptor binding of 3H-naloxone [1]: inhibit
- effect on electrically evoked contractions [2]: block electrically evoked contractions
- effect on electrically evoked contractions [3]: block electrically evoked contractions

Compound: H-Tyr-Gly-Gly-Phe-Leu-OH [leucine-enkephalin]
- effect on stereospecific receptor binding of 3H-naloxone [1]: inhibit
- effect on electrically evoked contractions [2]: block electrically evoked contractions
- effect on electrically evoked contractions [3]: block electrically evoked contractions

Compound: CN[C@@H](Cc1ccc(O)cc1)C(=O)N[C@H](CO)C(=O)NCC(=O)N(C)[C@@H](Cc1ccccc1)C(=O)N[C@H](CO)C(N)=O [N-Methyl-Tyrosyl-D-Serylglycyl-N-MethylPhenylalanyl-D-Serinamide. Acetate]
- dead [4]: 3/6
